Data as given in patent publication US20250205253A1, “PHARMACEUTICAL COMPOSITION FOR PREVENTING OR TREATING BENIGN PROSTATIC HYPERPLASIA” (University-Industry Cooperation Group of Kyung Hee …, priority 2023, published 2025).

What was measured:
[1] = tested on: testosterone-induced BPH rat model; experiment: qRT-PCR mRNA level in prostate of rats with BPH; type: in vivo
Description: (§1) Total RNA was isolated using Easy-Blue® reagent (iNtRON Biotechnology, Inc., Gyeonggi, Korea) and transcribed into complementary DNA (cDNA) according to the manufacturer's instructions. Oligonucleotide primers (Table 1) were purchased from Bioneer Corporation (Daejeon, Korea). qRT-PCR was performed according to the known method.
(§2) Six-week-old male Sprague-Dawley rats (n=40; 200 +20 g) were purchased from Daehan Biolink Co. (Daejeon, Korea). The animals were randomly allocated, four rats in each cage, and housed in accordance with the guidelines for the care and use of laboratory animals adopted and promulgated by Sangji University according to the requirements established by the National Institutes of Health. All experimental protocols were approved by the Institutional Animal Care and Use Committee (IACUC) of Sangji University before the initiation of the study (IACUC Animal Approval Protocol #2018-18). The rats were acclimatized to laboratory conditions for one week before initiating the experiment.
(§3) The rats in the control group were incised and sutured without removing the testicles following anesthesia using zoletil 50 (intraperitoneal injection, 10 mg/kg). […] Twenty-four hours after the final administration, all rats were euthanized following anesthesia with zoletil 50 (i.p., 20 mg/kg). Blood samples were drawn through cardiac puncture, and serum was obtained via centrifugation and stored at −80° C.

[2] = tested on: testosterone-induced BPH rat model; experiment: Immunofluorescence (8-OHdG, NLRP3) of rat prostate tissue; type: in vivo
Description: After deparaffinization and rehydration, rat prostate tissue slides were incubated with anti-mouse 8-OHdG antibodies or anti-rabbit NLRP3 antibodies and visualized with FITC-conjugated anti-mouse and TRITC-conjugated anti-rabbit secondary antibodies, respectively.
The slides were mounted and detected using a Nikon X-Cite-Series 120 Q microscope (Nikon, Japan). The exposure parameters were the same for each sample.
as §2
The rats in the control group were incised and sutured without removing the testicles following anesthesia using zoletil 50 (intraperitoneal injection, 10 mg/kg). […] Twenty-four hours after the final administration, all rats were euthanized following anesthesia with zoletil 50 (i.p., 20 mg/kg). […]

[3] = tested on: DHT-stimulated RWPE-1 cells; experiment: ATPase assay in DHT-stimulated RWPE-1 cells; type: cell-based, human; details: DHT-stimulated RWPE-1, MitoQ 25, 50, 100 μM, 24 h; FIG. 2E
[4] = tested on: testosterone-induced BPH rat model; experiment: Western blot of prostate tissue of rats with BPH; type: in vivo
Description: (§4) Total protein was extracted from the RWPE-1 cells and rat prostate tissues, and a western blot analysis was performed. An antibody against AR (Cat. No. sc-7305) was purchased from Santa Cruz Biotechnology, Inc. (TX, USA). Boster Biological Technology (CA, USA) provided an antibody against a prostate-specific antigen (PSA; Cat. No. PB9259). An antibody against caspase-3 (Cat. No. #9661) was purchased from Cell Signaling Technology. Novus Biologicals (CO, USA) provided an antibody against NLRP3 (Cat. No. NBP2-12446). An antibody against IL-1β (Cat. No. 2105) was purchased from Abcam (Cambridge, UK).
as §2, §3

[5] = tested on: testosterone-induced BPH rat model; experiment: Histological analysis (H&E) of prostate tissue of rats with BPH; type: in vivo; details: MitoQ 5, 25 mg/kg/day; Saw 100 mg/kg/day p.o.; FIGS. 4C, 4D
Description: as §2, §3
Prostate tissues from each group were fixed in 4% formalin and embedded in paraffin. The tissues were cut into 4-μm sections. […] The thickness of the epithelium in the prostate tissues was measured using the Leica Application Suite software (LAS ver. 3.3.0, Leica Microsystems, Inc., Buffalo Grove, IL, USA).

[6] = tested on: testosterone-induced BPH rat model; experiment: Testosterone-induced BPH rat model, prostate size and weight; type: in vivo
Description: as §2, §3

[7] = tested on: DHT-stimulated RWPE-1 cells; experiment: Immunofluorescence (8OHdG, NLRP3, AR) in DHT-stimulated RWPE-1 cells; type: cell-based, human; details: DHT-stimulated RWPE-1, MitoQ 25, 50, 100 μM
Description: (§5) The RWPE-1 cells were cultured in a keratinocyte serum-free medium supplemented with 0.05 mg/mL bovine pituitary extract, 5 ng/mL human recombinant epidermal growth factor, and antibiotic-antimycotic solution (Gibco®, Big Cabin, OK, USA). The cells were cultured in a humidified environment at 37° C. and 5% CO2. The cells were cultured in a serum-free medium to block the effects of autocrine androgens.
Thereafter, the cells were washed and incubated with fluorescein isothiocyanate (FITC)-conjugated anti-mouse or tetramethylrhodamine (TRITC)-conjugated anti-rabbit secondary antibodies. Nuclei were stained with 4′,6-diamidino-2-phenylindole (Life Technologies). Images were captured using an optical microscope (ECLIPSE Ni-U, Nikon, Tokyo, Japan).

[8] = tested on: DHT-stimulated RWPE-1 cells; experiment: qRT-PCR mRNA expression in DHT-stimulated RWPE-1 cells; type: cell-based, human; details: for mRNA level of HO-1 and GPX-1: FIG. 1E
Description: as §5, §1

[9] = tested on: DHT-stimulated RWPE-1 cells; experiment: Mitochondrial activity and mtROS levels (MitoTracker, MitoSOX); type: cell-based, human; details: DHT-stimulated RWPE-1, 100 μM MitoQ, 24 h; FIG. 1F
[10] = tested on: DHT-stimulated RWPE-1 cells; experiment: Western blot analysis in DHT-stimulated RWPE-1 cells; type: cell-based, human; details: DHT-stimulated RWPE-1, MitoQ 25, 50, 100 μM
Description: as §5, §4

[11] = tested on: DHT-stimulated RWPE-1 cells; experiment: CCK-8 assay, RWPE-1 cell proliferation under DHT stimulation; type: cell-based, human; details: 10 nM DHT, 24 h, FIG. 1C
Description: as §5
(§6) The cell viability and proliferation were measured using the Cell Counting Kit-8 (CCK-8, Dojindo Molecular Technologies, Inc., D.C., USA). The RWPE-1 cells were plated to 96-well plates (1×10^5 cells/well) and incubated for 24 h. […] After the treatment, the CCK-8 solution was added to each well and incubated for four hours. The number of viable cells was monitored by measuring absorbance at 450 nm using an Epoch microplate reader (Biotek, Winooski, VT, USA).

RWPE-1 cells = experiment: CCK-8 assay, viability of MitoQ-treated RWPE-1 cells; type: cell-based, human; details: without DHT, 24 h, FIG. 1B
Description: The normal human prostate epithelial cell line, RWPE-1, was obtained from the American Type Culture Collection (Manassas, VA, USA).
as §5, §6

## mitoquinone
[1]; FIG. 5D
  mRNA level of HO-1, SOD1, and PGC1α: upregulated
[1]; FIG. 6C
  increased mRNA level of PYCARD and IL-1β: repressed
[1]; FIGS. 7B, 7C
  mRNA level of 5α-reductase 2, AR, and SRC-1: downregulated
[2]; FIGS. 6A, 6B
  BPH-upregulated expression of NLRP3: reversed
[2]; vs BPH groups, FIGS. 5A, 5B
  intensity of 8-OHdG-positive staining: significantly lower
[3]
  ATPase-specific activity: significantly suppressed
[4]; FIGS. 6D, 6E
  overexpression of NLRP3, pro-caspase 1, cleaved caspase 1, and IL-1β proteins: suppressed
[4]; vs BPH groups, FIG. 5E
  expression of catalase and SOD2 (protein): significantly higher
[4]; vs BPH groups, FIG. 7D
  protein expression of PSA: decreased
[5]
  thickened epithelium of prostate tissue: significantly reduced
[6]; MitoQ 5, 25 mg/kg/day, Saw 100 mg/kg/day p.o., vs BPH, FIG. 4B
  prostate weight (PW/BW ratio): significant reduction
[6]; MitoQ 5 and 25 mg/kg p.o., four weeks, FIG. 4A
  prostate size: reduced
[7]; FIG. 1D
  overexpression of 8OHdG (oxidative stress indicator): notably suppressed
[7]; FIG. 2A
  NLRP3 protein expression: significantly suppressed
[7]; FIG. 3A
  AR overexpression (protein): clearly suppressed
[8]; DHT-stimulated RWPE-1, 100 μM MitoQ
  mRNA level of HO-1 and GPX-1: significantly increased
[8]; DHT-stimulated RWPE-1, MitoQ 25, 50, 100 μM, FIG. 2B
  mRNA expression of NLRP3, PYCARD, and IL-1β: significantly reduced
[8]; DHT-stimulated RWPE-1, MitoQ 25, 50, 100 μM, FIG. 3B
  mRNA level of AR, 5α-reductase 2, and PSA: notably inhibited
[8]; DHT-stimulated RWPE-1, MitoQ treatment
  mRNA level of HO-1 and GPX-1: normalized
[9]
  excessive production of mtROS: suppressed
[10]; FIG. 1G
  SOD2 and catalase protein expression: significantly increased
[10]; FIG. 3C
  PSA protein expression: considerably suppressed
[11]
  concentration of MitoQ significantly suppressing DHT-stimulated RWPE-1 cell proliferation: ≥ 6.25 μM
RWPE-1 cells
  concentration of MitoQ suppressing RWPE-1 cell proliferation (viability): ≥ 25 μM
